Assay results taken from patent US20230348459A1, “PYRROLIDINE COMPOUND AND USE THEREOF” (SIMCERE PHARMACEUTICAL CO., LTD., priority 2020, published 2023).

Experiments:
CYP2C9 = CYP2C9 (Homo sapiens (Human), UniProt P11712); experiment: Inhibition of CYP2C9 enzymatic activity in human liver microsomes; format: in vitro ADME; settings: substrate diclofenac
Procedure: (§1) The inhibition of CYP2C9 and CYP2D6 enzymatic activities by the compounds of the present invention was determined by the following test method.
(§2) • 1. Human liver microsomes (Corning 452117) • 2. NADPH (Solarbio 705Y021) • 3. Positive substrates diclofenac (Sigma SLBV3438), dextromethorphan (TRC 3-EDO-175-1) and midazolam (Cerilliant FE01161704) • 4. Positive inhibitors sulfaphenazole (D. Ehrenstorfer GmbH 109012), quinidine (TCI WEODL-RE) and ketoconazole (Sigma 100M1091V) • 5. AB Sciex Triple Quad 5500 liquid chromatography-mass spectrometry
(§3) 1. Preparation of 100 mM phosphate buffered saline (PBS): 7.098 g of Na2HPO4 was weighed, 500 mL of pure water was added and subjected to ultrasonic dissolution to obtain solution A. 3.400 g of KH2PO4 was weighed, 250 mL of pure water was added and subjected to ultrasonic dissolution to obtain solution B. Solution A was placed on a stirrer and solution B was slowly added until pH reaches 7.4 to prepare 100 mM PBS buffer.
(§4) 2. Preparation of 10 mM NADPH solution with 100 mM PBS buffer. 10 mM stock solution of compounds of the invention was diluted with DMSO to obtain a 200× concentration of compound working solution (6000, 2000, 600, 200, 60, 20, 0 µM). The stock solution of positive inhibitors was diluted with DMSO to obtain a 200× concentration of positive inhibitor working solution (sulfaphenazole, 1000, 300, 100, 30, 10, 3, 0 µM; quinidine/ketoconazole, 100, 30, 10, 3, 1, 0.3, 0 µM). A 200 × concentration of substrate working solution (120 µM of diclofenac, 400 µM of dextromethorphan, and 200 µM of midazolam) was prepared in water, acetonitrile, or acetonitrile/methanol.
(§5) 3. 2 µl of 20 mg/ml liver microsome solution, 1 µl of substrate working solution, 1 µl of compound working solution and 176 µl of PBS buffer were taken, mixed uniformly, and pre-incubated in a 37° C. water bath for 15 minutes. […]
(§6) The IC50 values of the compounds of the present invention against CYP2C9 and CYP2D6 were calculated by Excel XLfit 5.3.1.3.

CYP2D6 = CYP2D6 (Homo sapiens (Human), UniProt P10635); experiment: Inhibition of CYP2D6 enzymatic activity in human liver microsomes; format: in vitro ADME; settings: substrate dextromethorphan
Procedure: as §1, §2, §3, §4, §5, §6

[1] = target: estrogen receptors in MCF7 cells (Homo sapiens (Human), UniProt P03372); experiment: Degradation of estrogen receptors in MCF7 cells (in-cell western); format: cell-based; settings: for DC50: 24 hours treatment, read-out: ER level DC50; for Dmax: 24 hours, 0.1 µM fulvestrant = 100% degradation control, read-out: Maximum degradation rate
Procedure: The purpose of the experiment is to determine the degradation activity of the compounds of the present invention on endogenously expressed estrogen receptors in MCF7 cells, and to evaluate the activity of the compounds according to DC50 and maximum degradation efficiency.
MCF7 cells (ATCC, HTB-22) were cultured in DMEM (Gibco, 11995-065) complete medium containing 10% fetal bovine serum. On the first day of the experiment, MCF7 cells were inoculated in a 384-well plate at a density of 3000 cells/well using the complete medium, and cultured in a 37° C., 5% CO2 cell incubator. The compounds to be tested were dissolved in DMSO with a stock concentration of 10 mM, the solution was diluted with Echo 550 (Labcyte Inc.) and added to the cell culture plate. Each compound with the starting concentration for treatment of 100 nM was subjected to 3-fold gradient dilution with 9 concentration points. A blank control containing 0.5% DMSO was set, and double replicate wells as controls were set at each concentration point. The culture was cultured in a 37° C., 5% CO2 cell incubator for 24 hours. Paraformaldehyde was added to the cell culture medium in each cell culture well, and the final concentration of paraformaldehyde was about 3.7% to fix the cells. After the mixture was reacted for 30 minutes, the supernatant was discarded, and 50 µL of PBS was added to each well for washing once. The cells were treated with PBS containing 0.5% v/v Tween-20 for 30 minutes, and washed with PBS once. A blocking solution (PBS containing 5% BSA, 0.05% Tween-20) was added, and the mixture was incubated at room temperature for 1 hour. The blocking solution was removed, a mixture solution of primary antibodies (anti-ER mAb, Estrogen Receptor α (D8H8) Rabbit mAb, GST, # 8644S, 1 : 1000 dilution; anti-GAPDH mAb, GAPDH(D4C6R) Mouse mAb, GST, #97166S, 1 : 2000 dilution) was added, and the mixture was incubated at room temperature for 3 hours. The culture was washed with PBST (PBS containing 0.05% Tween-20) 3 times. Secondary antibodies for detection (800CW-goat anti-rabbit IgG, LI-COR, P/N: 926-32211, 1 : 1000 dilution; 680RD-goat anti-mouse IgG, LI-COR, #925-68070, 1 : 1000 dilution) were added, and the mixture was incubated at room temperature and in the dark for 45 minutes. After washing with PBST 3 times, the fluorescence signal of each well was read using Odyssey CLx, and the value of Chanel 800 (ER)/Chanel 680 (GAPDH) was calculated. The wells treated with 0.1 µM fulvestrant were used as the 100% degradation control, and the degradation rate at each concentration point was calculated. The data were analyzed and processed by XlLfit, and the degradation activity DC50 and the maximum degradation rate Imax of each compound were calculated.

Sequence of CYP2C9 (P11712 whole entry): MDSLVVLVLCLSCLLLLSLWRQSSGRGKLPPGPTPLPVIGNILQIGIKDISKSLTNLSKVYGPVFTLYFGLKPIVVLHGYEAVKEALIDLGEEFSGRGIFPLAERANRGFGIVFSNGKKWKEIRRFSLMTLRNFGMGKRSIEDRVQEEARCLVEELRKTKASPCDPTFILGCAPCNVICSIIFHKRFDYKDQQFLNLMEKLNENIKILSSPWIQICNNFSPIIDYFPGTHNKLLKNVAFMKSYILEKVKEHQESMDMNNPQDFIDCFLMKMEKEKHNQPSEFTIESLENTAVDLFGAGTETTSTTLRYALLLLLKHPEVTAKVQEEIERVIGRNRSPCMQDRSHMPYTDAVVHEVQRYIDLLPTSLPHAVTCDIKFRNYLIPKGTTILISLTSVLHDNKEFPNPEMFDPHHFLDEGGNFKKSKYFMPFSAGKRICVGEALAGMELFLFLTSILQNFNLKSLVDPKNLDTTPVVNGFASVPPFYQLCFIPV
Sequence of CYP2D6 (P10635 whole entry): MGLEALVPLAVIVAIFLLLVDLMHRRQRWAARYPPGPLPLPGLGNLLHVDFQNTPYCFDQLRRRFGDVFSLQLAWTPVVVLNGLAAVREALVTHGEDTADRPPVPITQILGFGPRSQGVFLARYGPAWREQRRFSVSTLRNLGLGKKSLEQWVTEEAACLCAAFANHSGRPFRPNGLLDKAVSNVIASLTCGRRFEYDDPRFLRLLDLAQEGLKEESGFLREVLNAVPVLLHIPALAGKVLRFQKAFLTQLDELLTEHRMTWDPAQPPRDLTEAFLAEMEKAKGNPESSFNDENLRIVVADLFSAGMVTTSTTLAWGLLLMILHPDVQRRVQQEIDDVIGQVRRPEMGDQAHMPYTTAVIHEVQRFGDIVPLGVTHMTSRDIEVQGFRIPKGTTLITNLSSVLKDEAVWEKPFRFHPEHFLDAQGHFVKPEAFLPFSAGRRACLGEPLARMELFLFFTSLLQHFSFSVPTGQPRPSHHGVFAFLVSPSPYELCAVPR
Sequence of estrogen receptors in MCF7 cells (P03372 whole entry): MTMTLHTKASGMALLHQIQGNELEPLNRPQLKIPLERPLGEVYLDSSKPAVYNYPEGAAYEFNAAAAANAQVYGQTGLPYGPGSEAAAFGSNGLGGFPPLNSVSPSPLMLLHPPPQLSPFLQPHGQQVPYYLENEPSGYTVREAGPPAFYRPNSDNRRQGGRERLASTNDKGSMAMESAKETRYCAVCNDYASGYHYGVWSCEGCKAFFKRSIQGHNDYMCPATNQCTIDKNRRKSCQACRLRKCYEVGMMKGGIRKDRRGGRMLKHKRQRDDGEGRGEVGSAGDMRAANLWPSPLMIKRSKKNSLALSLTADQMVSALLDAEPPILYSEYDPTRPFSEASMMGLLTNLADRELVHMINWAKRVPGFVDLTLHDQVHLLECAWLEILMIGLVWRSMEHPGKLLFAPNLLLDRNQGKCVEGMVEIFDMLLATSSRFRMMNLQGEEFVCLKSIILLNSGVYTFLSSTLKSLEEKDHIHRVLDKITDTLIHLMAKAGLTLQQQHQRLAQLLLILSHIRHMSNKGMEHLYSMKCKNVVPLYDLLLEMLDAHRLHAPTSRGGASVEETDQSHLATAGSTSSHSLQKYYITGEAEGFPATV

Compound	IC50 (CYP2C9) [µM]	IC50 (CYP2D6) [µM]	DC50 [1] [nM]	Dmax [1] [%]
C[C@@H]1Cc2c([nH]c3ccccc23)C(c2c(F)cc(N[C@H]3CCN(CCCF)C3)cc2F)N1CC(F)(F)F (stereo in doubt) [Example 4, (S)-N-(3,5-difluoro-4-((1S,3R)-3-methyl-2-(2,2,2-trifluoroethyl)-2,3,4,9-tetrahydro-1H-pyridino[3,4-b]indol-1-yl)phenyl)-1-(3-fluoropropyl)pyrrolidin-3-amine]	20	27	0.04	99
C[C@@H]1Cc2c([nH]c3ccccc23)C(c2c(F)cc(N[C@H]3CCN(CCCF)C3)cc2F)N1CC(F)(F)CO (stereo in doubt) [Example 7, 3-((1S,3R)-1-(2,6-difluoro-4-(((S)-1-(3-fluoropropyl)pyrrolidin-3-yl)amino)phenyl)-3-methyl-3,4-dihydro-1H-pyridino [3,4-b]indole-2(9H)-yl)-2,2-difluoropropane-1-ol]	8	23	0.06	–
C[C@@H]1Cc2c([nH]c3ccccc23)[C@@H](c2ccc(N[C@H]3CCN(CCCF)C3)cn2)N1CC(F)(F)F [Example 3, N-((S)-1-(3-fluoropropyl)pyrrolidin-3-yl)-6-((1S,3R)-3-methyl-2-(2,2,2-trifluoroethyl)-2,3,4,9-tetrahydro-1H-pyridino[3,4-b]indol-1-yl)pyridine-3-amine]	> 30	> 30	0.15	104
